In US4087421A, “Substituted benzodiazepines and method of use” (American Cyanamid Company, priority 1977, dated 1978):
Several values for one entry are separate records, joined by “and”; a condition that tells them apart may be missing. Equal entries are not always repeated.

Assays:
[1] = Inhibition of tetrabenazine induced depression of exploratory behavior in mice; assay type: in vivo; settings: for Number Responded/Number Treated: intraperitoneally or orally, 1 h before tetrabenazine 30 mg/kg; for ED50: Mus musculus, calculated by method of Finney, dose column in mg/kg, read-out: ED50 (95% C.L.)
Description: Varying doses of the test compounds are administered intraperitoneally or orally to 5 mice one hour before the administration of tetrabenazine hexamate at an intraperitoneal dose of 30 mg/kg which is known to depress markedly the exploratory behavior of normal mice. Thirty minutes later the mice are tested for their exploratoy behavior. Individual mice are placed in the center of a horizontal disc. Inhibition of the depression induced by tetrabenazine is considered present if the mice perform one or more of the following actions within 10 seconds after being placed on the disc:
(1) Animals move to the edge of the disc and pear over the side.
(2) Animals move 180° in place.
(3) Animals display a head movement of 90° immediately followed by a head movement in the opposite direction of at least 45°.
Administration of the test compounds to additional groups of 5 mice is repeated, the numbers of individual animals showing an anti-depressant response (normal exploratory behavior) is recorded and the results are analyzed by the following scheme (statistically standardized; significant P = less than 0.05).
The results from several dose levels (acceptance in at least two sequential test procedures) are then used to establish the Range of Active Doses.

[2] = "writhing syndrome" test for analgesic activity (phenyl p-quinone); assay type: in vivo, male Swiss albino mice; settings: 6.25 mg/kg oral; control approximately 30 per pair; active if 18 or less
Description: This method is based upon the reduction of the number of writhes following the intraperitoneal injection of one mg./kg. of body weight of phenyl p-quinone in male Swiss albino mice weighing 15-25 g. The syndrome is characterized by intermittent contractions of the abdomen, twisting and turning of the trunk, and extension of the hind legs beginning 3 to 5 minutes after injection of the phenyl p-quinone. The test compounds are administered orally at the indicated dose to groups of 2 mice each, 30 minutes before injection of the phenyl p-quinone.

[3] = reduction of spontaneous motor activity (Animax Activity Counter); assay type: in vivo; settings: Rattus norvegicus, 5 min; oral, rats, 5 minute period; read-out: MDD50 (effective dose that causes a 50% reduction in motor activity)
Description: A useful test for anti-psychotic activity consists of measuring the reduction of spontaneous motor activity in animals.
Groups of 4 rats are treated orally with the test compound dissolved or suspended in starch vehicle at the maximum tolerated dose. At the estimated time of peak effect, the animals are placed singly into an Animax Activity Counter and the activity of each rat is recorded over a 5 minute period. The activity counts are compared to historical or parallel control values to determine significant increased or decreased locomotor activity.

reversible ptosis test = assay type: in vivo; settings: oral, rats
Description: A useful test for anti-psychotic activity consists of measuring ptosis in animals.
Ptosis is defined as closure of the palpebral aperture (eyelid) greater than 70%. The compounds to be tested were administered orally to groups of 10 rats each. Periodically after treatment the rats were gently placed on the cage top and examined for 90 seconds for signs of ptosis. This manipulation eliminates spontaneous ptosis. The rats were then dropped from a height of about 18 inches (exteroceptive stimulation) onto the cage top to test for reversibility of ptosis. Reversible ptosis is defined as less than 70% closure of the palpebral aperture for longer than one minute after the exteroceptive stimulation and is indicative of neuroleptic activity of the drug administered.

[4] = Prevention of reserpine-induced hypothermia in rats; assay type: in vivo; settings: for ED50: Rattus norvegicus, oral, dose column in mg/kg, read-out: ED50 (95% C.L.)
Description: Groups of 5 rats were treated orally with graded doses of the test compounds. One hour later the animals were treated with reserpine (solubilized in propylene glycol and citric acid) at a dose of 5 mg/kg intraperitoneally. Rectal temperatures were measured using a YSI Telethermometer. Temperatures were recorded just prior to treatment, one hour later just prior to reserpine administration and at hourly intervals following reserpine administration for 5 hours. […]

CCN1CCN(C2=Nc3ccccc3N(C)c3cscc32)CC1 [4-Methyl-10-(4-ethyl-1-piperazinyl)-4H-thieno[3,4-b][1,5]benzodiazepine]
Number Responded/Number Treated ([1]; 3.13 mg/kg): 3/15 | Number Responded/Number Treated ([1]; 6.25 mg/kg): 10/30 | Number Responded/Number Treated ([1]; 12.5 mg/kg): 12/25 | Number Responded/Number Treated ([1]; 25.0 mg/kg): 10/25 | ED50 [1]: ~35 mg/kg

CN1CCN(C2=Nc3ccc(Cl)cc3Nc3cscc32)CC1 [6-Chloro-10-(4-methyl-1-piperazinyl)-4H-thieno[3,4-b][1,5]benzodiazepine]
No. of Writhes Per Pair [2]: 7 and 6 | ED50 [3]: 7.7 mg/kg | ED50 (dose estimated to create reversible ptosis in 50% of the animals) (reversible ptosis test): 17 mg/kg

CN(C)CCCN1c2ccccc2CCc2ccccc21 [Imipramine, reference compound]
Number Responded/Number Treated ([1]; 0.78 mg/kg): 1/10 | Number Responded/Number Treated ([1]; 1.56 mg/kg): 2/10 | Number Responded/Number Treated ([1]; 3.13 mg/kg): 4/10 | Number Responded/Number Treated ([1]; 6.25 mg/kg): 7/10 | Number Responded/Number Treated ([1]; 12.5 mg/kg): 7/10 | Number Responded/Number Treated ([1]; 25.0 mg/kg): 9/10 | ED50 [1]: 4.4 mg/kg | Percent of Animals Showing > Two Standard Deviations in Rectal Temperature Over Control Means ([4]; 0.20 mg/kg oral, 2 hours after reserpine): 0% | Percent of Animals Showing > Two Standard Deviations in Rectal Temperature Over Control Means ([4]; 0.20 mg/kg oral, 3 hours after reserpine): 0% | Percent of Animals Showing > Two Standard Deviations in Rectal Temperature Over Control Means ([4]; 0.20 mg/kg oral, 4 hours after reserpine): 0% | Percent of Animals Showing > Two Standard Deviations in Rectal Temperature Over Control Means ([4]; 0.20 mg/kg oral, 5 hours after reserpine): 0% | Percent of Animals Showing > Two Standard Deviations in Rectal Temperature Over Control Means ([4]; 0.39 mg/kg oral, 2 hours after reserpine): 0% | Percent of Animals Showing > Two Standard Deviations in Rectal Temperature Over Control Means ([4]; 0.39 mg/kg oral, 3 hours after reserpine): 10% | Percent of Animals Showing > Two Standard Deviations in Rectal Temperature Over Control Means ([4]; 0.39 mg/kg oral, 4 hours after reserpine): 0% | Percent of Animals Showing > Two Standard Deviations in Rectal Temperature Over Control Means ([4]; 0.39 mg/kg oral, 5 hours after reserpine): 0% | Percent of Animals Showing > Two Standard Deviations in Rectal Temperature Over Control Means ([4]; 0.78 mg/kg oral, 2 hours after reserpine): 21% | Percent of Animals Showing > Two Standard Deviations in Rectal Temperature Over Control Means ([4]; 0.78 mg/kg oral, 3 hours after reserpine): 0% | Percent of Animals Showing > Two Standard Deviations in Rectal Temperature Over Control Means ([4]; 0.78 mg/kg oral, 4 hours after reserpine): 0% | Percent of Animals Showing > Two Standard Deviations in Rectal Temperature Over Control Means ([4]; 0.78 mg/kg oral, 5 hours after reserpine): 7% | Percent of Animals Showing > Two Standard Deviations in Rectal Temperature Over Control Means ([4]; 1.56 mg/kg oral, 2 hours after reserpine): 40% | Percent of Animals Showing > Two Standard Deviations in Rectal Temperature Over Control Means ([4]; 1.56 mg/kg oral, 3 hours after reserpine): 20% | Percent of Animals Showing > Two Standard Deviations in Rectal Temperature Over Control Means ([4]; 1.56 mg/kg oral, 4 hours after reserpine): 20% | Percent of Animals Showing > Two Standard Deviations in Rectal Temperature Over Control Means ([4]; 1.56 mg/kg oral, 5 hours after reserpine): 40% | Percent of Animals Showing > Two Standard Deviations in Rectal Temperature Over Control Means ([4]; 3.13 mg/kg oral, 2 hours after reserpine): 100% | Percent of Animals Showing > Two Standard Deviations in Rectal Temperature Over Control Means ([4]; 3.13 mg/kg oral, 3 hours after reserpine): 90% | Percent of Animals Showing > Two Standard Deviations in Rectal Temperature Over Control Means ([4]; 3.13 mg/kg oral, 4 hours after reserpine): 80% | Percent of Animals Showing > Two Standard Deviations in Rectal Temperature Over Control Means ([4]; 3.13 mg/kg oral, 5 hours after reserpine): 100% | Percent of Animals Showing > Two Standard Deviations in Rectal Temperature Over Control Means ([4]; 6.25 mg/kg oral, 2 hours after reserpine): 100% | Percent of Animals Showing > Two Standard Deviations in Rectal Temperature Over Control Means ([4]; 6.25 mg/kg oral, 3 hours after reserpine): 100% | Percent of Animals Showing > Two Standard Deviations in Rectal Temperature Over Control Means ([4]; 6.25 mg/kg oral, 4 hours after reserpine): 100% | Percent of Animals Showing > Two Standard Deviations in Rectal Temperature Over Control Means ([4]; 6.25 mg/kg oral, 5 hours after reserpine): 100% | Percent of Animals Showing > Two Standard Deviations in Rectal Temperature Over Control Means ([4]; 12.5 mg/kg oral, 2 hours after reserpine): 100% | Percent of Animals Showing > Two Standard Deviations in Rectal Temperature Over Control Means ([4]; 12.5 mg/kg oral, 3 hours after reserpine): 80% | Percent of Animals Showing > Two Standard Deviations in Rectal Temperature Over Control Means ([4]; 12.5 mg/kg oral, 4 hours after reserpine): 100% | Percent of Animals Showing > Two Standard Deviations in Rectal Temperature Over Control Means ([4]; 12.5 mg/kg oral, 5 hours after reserpine): 100% | ED50 ([4]; 2 hours after reserpine): 1.2 mg/kg | ED50 ([4]; 3 hours after reserpine): 2.2 mg/kg | ED50 ([4]; 4 hours after reserpine): 2.2 mg/kg | ED50 ([4]; 5 hours after reserpine): 1.3 mg/kg
